Measured values taken from US7601722B2, “Aryl sulfamide derivatives and methods of their use” (Wyeth, priority 2006, dated 2009).
Structures can show the parent of a compound that is named as a salt.

What was measured:
[1] = Rat Liver Microsomal Stability Assay; assay type: in vitro ADME; settings: pH 7.4; rat liver microsomes, 37° C., NADPH, Time 0 and Time 15 min; read-out: RLM stability t1/2
Protocol: Rat Liver Microsomal Stability Assay:
DMSO stock solutions of test compounds were prepared at 0.5 mM concentration. Diluted solutions of test compounds were prepared by adding 50 uL of each DMSO stock solution to 200 uL of acetonitrile to make 0.1 mM solutions in 20% DMSO/80% acetonitrile. Rat liver microsomal solution was prepared by adding 1.582 mL of concentrated rat liver microsomes (20 mg/mL protein concentration) to 48.291 mL of pre-warmed (to 37° C.) 0.1M potassium phosphate buffer (pH 7.4) containing 127 uL of 0.5 M EDTA to make a 0.6329 mg/mL (protein) microsomal solution. 11.2 uL of each test compound diluted solution was each added directly to 885 uL of rat liver microsomal solution (allowing direct binding of drugs to microsomal proteins and lipids to minimize precipitation and non-specific binding to the plasticware). This solution was mixed and 180 uL was transferred to “Time 0” and “Time 15 min” plates (each in duplicate wells). For the Time 15 min plate, NADPH regenerating agent (45 uL) was added to each well to initiate the reaction, the plate was incubated at 37° C. for 15 min, followed by quenching of the reaction by adding 450 uL of cold acetonitrile to each well. For the Time 0 plate, 450 uL of cold acetonitrile was added to each well, followed by addition of NADPH regenerating agent (45 uL) and no incubation. All of the plates were centrifuged at 3000 rpm for 15 min and the supernatants were transferred to other well plates for analysis by LC-MS.

[2] = molecular target: Dopamine Transporter (hDAT) (Homo sapiens, UniProt Q01959); assay: Dopamine Transporter (hDAT) Membrane Binding Assay
hNET = hNET (Homo sapiens, UniProt P23975); assay: hNET binding according to Mahaney et al.; settings: hNET binding per footnote, printed in the NE uptake column
[3] = molecular target: T1, Cloned Human NE Transporters (Homo sapiens, UniProt P23975); assay: hNET Assay Procedure Protocol A: inhibition of [3H] NE uptake (MDCK cells) (hNET uptake); assay type: cell-based; settings: MDCK cells expressing hNET, [3H] NE 16 nM
T1 construct: expressed in transfected cells; host or cells: MDCK
Protocol: hNET Assay Procedure Protocol A: Inhibition of [^3H] NE Uptake into Cloned Human NE Transporters (MDCK Cells) (“hNET uptake”)
[^3H] […] Cells were seeded at 300,000/T75 flask, and split twice weekly.
All uptake experiments were performed in 96-well plates (Falcon Optilux, cat #353947) in a total volume of 250 μl/well. MDCK cells were plated at 50,000 cells/well. […] 25 μl of each test compound was subsequently added to plates in triplicate and incubated at 37° C. for 5 minutes. All test compounds were dissolved in 100% DMSO and diluted in 4% DMSO/H2O, and assayed using a 7-point dose response curve (1 nM-10 μM). Next, 25 μl of [^3H] NE (74.9 Ci/mmol, Perkin Elmer, Boston, Mass.) was added to all wells and incubated at 37° C. for an additional 5 minutes. Non-specific uptake was defined by 20 μM desipramine. The final concentrations of [^3H] NE was 16 nM, respectively. The reaction was terminated by aspiration and washed with ice cold 50 mM Tris (pH 7.4). […] 100 μl of Microscint-20 were added to each well (Packard, Perkin Elmer, Boston, Mass.), and the plates were counted using a TopCount (Perkin Elmer, Downer's Grove, Ill.) liquid scintillation counter. […]
IC50 values were calculated using a Prism® nonlinear regression program where % inhibition is plotted versus concentration of inhibitor.

Dopamine Transporter (hDAT), sequence (Q01959 whole entry): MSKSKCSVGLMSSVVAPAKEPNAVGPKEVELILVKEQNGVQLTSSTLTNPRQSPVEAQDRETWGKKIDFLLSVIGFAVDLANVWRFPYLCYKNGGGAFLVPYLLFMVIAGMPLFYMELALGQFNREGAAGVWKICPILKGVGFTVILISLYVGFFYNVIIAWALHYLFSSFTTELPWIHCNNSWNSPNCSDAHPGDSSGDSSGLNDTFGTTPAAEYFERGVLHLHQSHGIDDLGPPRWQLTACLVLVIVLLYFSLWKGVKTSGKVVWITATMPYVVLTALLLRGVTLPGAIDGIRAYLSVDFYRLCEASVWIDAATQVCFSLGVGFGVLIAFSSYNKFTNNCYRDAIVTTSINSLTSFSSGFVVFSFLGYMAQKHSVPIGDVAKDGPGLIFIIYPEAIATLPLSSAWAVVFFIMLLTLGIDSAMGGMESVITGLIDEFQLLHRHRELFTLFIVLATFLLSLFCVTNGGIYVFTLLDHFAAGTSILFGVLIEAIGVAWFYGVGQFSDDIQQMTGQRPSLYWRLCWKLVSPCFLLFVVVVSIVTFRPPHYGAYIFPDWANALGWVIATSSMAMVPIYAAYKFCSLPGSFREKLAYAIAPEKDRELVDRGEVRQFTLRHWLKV
hNET, sequence (P23975 whole entry): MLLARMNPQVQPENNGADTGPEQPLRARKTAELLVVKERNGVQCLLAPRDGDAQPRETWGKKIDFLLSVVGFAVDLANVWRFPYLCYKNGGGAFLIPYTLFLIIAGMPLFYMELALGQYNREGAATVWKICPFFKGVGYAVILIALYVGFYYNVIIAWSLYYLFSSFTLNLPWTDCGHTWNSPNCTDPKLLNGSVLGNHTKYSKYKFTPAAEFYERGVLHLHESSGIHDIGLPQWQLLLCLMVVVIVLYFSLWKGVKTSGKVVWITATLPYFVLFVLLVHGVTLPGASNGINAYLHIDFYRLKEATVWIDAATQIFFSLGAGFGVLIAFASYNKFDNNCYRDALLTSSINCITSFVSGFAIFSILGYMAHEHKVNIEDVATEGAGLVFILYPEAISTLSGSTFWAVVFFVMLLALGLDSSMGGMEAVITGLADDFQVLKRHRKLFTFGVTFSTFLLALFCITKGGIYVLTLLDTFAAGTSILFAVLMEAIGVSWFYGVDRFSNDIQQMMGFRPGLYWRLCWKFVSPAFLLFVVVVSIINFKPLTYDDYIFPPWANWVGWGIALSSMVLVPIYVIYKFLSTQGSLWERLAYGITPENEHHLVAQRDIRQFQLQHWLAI
T1 sequence (P23975 whole entry): as above

Compound	half-life at 1 µM [1]	IC50 [2]	further results
O=S1(=O)N(CC[C@@H]2CNCCO2)c2ccccc2N1c1ccccc1 [Example 136, 1-{2-[(2R)-morpholin-2-yl]ethyl}-3-phenyl-1,3-dihydro-2,1,3-benzothiadiazole2,2-dioxide]	3 min	0.598 µM	–
COc1cccc(N2c3ccccc3N(CC[C@H]3CNCCO3)S2(=O)=O)c1 [Example 146, 1-(3-methoxyphenyl)-3-{2-[(2S)-morpholin-2-yl]ethyl}-1,3-dihydro-2,1,3-benzothiadiazole2,2-dioxide]	5 min	–	–
NCC1CCN(CCN2c3ccccc3N(c3ccccc3)S2(=O)=O)C1 (stereo not shown) [Example 105, 1-{1-[2-(2,2-dioxido-3-phenyl-2,1,3-benzothiadiazol-1(3H)-yl)ethyl]pyrrolidin-3-yl}methanamine dihydrochloride]	–	–	IC50 (hNET): 0.289 µM
O=S1(=O)N(CCC2CNCCO2)c2ccccc2N1c1ccc(F)cc1 (stereo not shown) [Example 137, 1-(4-fluorophenyl)-3-(2-morpholin-2-ylethyl)-1,3-dihydro-2,1,3-benzothiadiazole 2,2-dioxide]	9 min	–	–
O=S1(=O)N(CC[C@@H]2CNCCO2)c2ccccc2N1c1ccc(F)cc1 [Example 139, 1-(4-fluorophenyl)-3-{2-[(2R)-morpholin-2-yl]ethyl}-1,3-dihydro-2,1,3-benzothiadiazole2,2-dioxide]	10 min	–	–
O=S1(=O)N(CC[C@H]2CNCCO2)c2ccccc2N1c1ccccc1 [Example 135, 1-{2-[(2S)-morpholin-2-yl]ethyl}-3-phenyl-1,3-dihydro-2,1,3-benzothiadiazole2,2-dioxide]	5 min	0.479 µM	–
O=S1(=O)N(CCCCN2CCOCC2)c2ccccc2N1c1ccc(Cl)cc1 [Example 180, 1-(4-chlorophenyl)-3-(4-morpholin-4-ylbutyl)-1,3-dihydro-2,1,3-benzothiadiazole2,2-dioxide]	–	–	IC50 [3]: 1.76 µM
CN(C)CCOCCN1c2ccccc2N(c2ccc(F)cc2F)S1(=O)=O [Example 170, 2-{2-[3-(2,4-difluorophenyl)-2,2-dioxido-2,1,3-benzothiadiazol-1(3H)-yl]ethoxy}-N,N-dimethylethanamine hydrochloride]	–	–	IC50 (hNET): 0.207 µM
O=S1(=O)N(CC[C@H]2CNCCO2)c2ccccc2N1c1c(F)cccc1F [Example 150, 1-(2,6-difluorophenyl)-3-{2-[(2S)-morpholin-2-yl]ethyl}-1,3-dihydro-2,1,3-benzothiadiazole2,2-dioxide]	3 min	–	–

Continued, in another order:

half-life at 1 µM [1]	IC50 [2]	Compound	further results
5 min	2.19 µM	O=S1(=O)N(CC[C@@H]2CNCCO2)c2ccccc2N1c1ccccc1F [Example 149, 1-(2-fluorophenyl)-3-{2-[(2R)-morpholin-2-yl]ethyl}-1,3-dihydro-2,1,3-benzothiadiazole2,2-dioxide]	–
4 min	1.4 µM	O=S1(=O)N(CC[C@H]2CNCCO2)c2ccccc2N1c1ccccc1F [Example 148, 1-(2-fluorophenyl)-3-{2-[(2S)-morpholin-2-yl]ethyl}-1,3-dihydro-2,1,3-benzothiadiazole2,2-dioxide]	–
2 min	–	O=S1(=O)N(CC[C@H]2CNCCO2)c2ccccc2N1c1ccc(F)cc1F [Example 141, 1-(2,4-difluorophenyl)-3-{2-[(2S)-morpholin-2-yl]ethyl}-1,3-dihydro-2,1,3-benzothiadiazole2,2-dioxide]	–
